The experiment deals with T1, LXRβ (Homo sapiens, UniProt P55055).
T1 construct: Co-transfection expression plasmids, comprising full-length LXRα (pCMX-h LXRα[…] or LXRβ (pCMX-hLXRβ)); expressed in transfected cells; host or cells: CV-1 African Green Monkey Kidney Cells
T1 sequence (P55055 1-460): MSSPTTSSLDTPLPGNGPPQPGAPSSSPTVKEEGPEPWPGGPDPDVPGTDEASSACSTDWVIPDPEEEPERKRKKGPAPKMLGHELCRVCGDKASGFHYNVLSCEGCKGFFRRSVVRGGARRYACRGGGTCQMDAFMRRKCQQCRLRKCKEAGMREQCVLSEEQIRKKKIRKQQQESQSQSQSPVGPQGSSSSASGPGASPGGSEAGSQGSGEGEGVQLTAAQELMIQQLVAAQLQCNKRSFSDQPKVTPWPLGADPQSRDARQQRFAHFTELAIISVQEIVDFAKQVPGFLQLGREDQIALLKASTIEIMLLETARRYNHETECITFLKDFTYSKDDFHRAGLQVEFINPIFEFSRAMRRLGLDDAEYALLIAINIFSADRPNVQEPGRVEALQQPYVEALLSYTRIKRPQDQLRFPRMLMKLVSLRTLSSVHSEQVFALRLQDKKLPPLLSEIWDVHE
T1 sequence (P19793 1-462 partner): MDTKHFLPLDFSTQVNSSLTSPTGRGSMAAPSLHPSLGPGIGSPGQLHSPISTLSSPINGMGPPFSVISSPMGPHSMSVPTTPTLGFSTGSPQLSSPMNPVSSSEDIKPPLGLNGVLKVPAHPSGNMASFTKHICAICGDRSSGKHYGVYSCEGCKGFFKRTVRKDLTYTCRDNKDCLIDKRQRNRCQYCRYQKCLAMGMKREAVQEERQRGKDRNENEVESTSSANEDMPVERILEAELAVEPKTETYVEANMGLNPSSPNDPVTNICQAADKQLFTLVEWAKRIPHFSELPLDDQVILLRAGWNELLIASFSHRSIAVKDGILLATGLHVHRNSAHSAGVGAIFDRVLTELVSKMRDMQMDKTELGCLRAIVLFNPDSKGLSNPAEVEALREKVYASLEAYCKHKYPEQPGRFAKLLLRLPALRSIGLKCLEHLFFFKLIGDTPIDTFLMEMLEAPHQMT
As to the kind of experiment: Co-transfection assay (LXRE luciferase reporter), LXRβ. The format is cell-based. Particulars: for EC50: CV-1 cells transfected with pCMX-hLXRβ and LXREx1-Tk-Luciferase, 20 hours incubation; for Emax: LXRβ co-transfection, relative to high control 1-(2,4-difluorobenzyl)-2-oxo-6-(4-phenoxyphenyl)-4-(trifluoromethyl)-1,2-dihydropyridine-3-carbonitrile, read-out: % Efficacy. In outline: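 Luciferase signal from an LXREx1-Tk reporter was measured after transfected CV-1 cells (full-length hLXRβ, endogenous RXR) were treated with compounds for 20 h at 37 °C, ≤0.5% DMSO. EC50 came from four-parameter fits of 11-point ½-log curves; % efficacy versus a reference agonist maximum.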
In general terms: Reporter assays use an easily measured gene product as a stand-in for the process of interest.

The EC50 is the midpoint of the concentration-response curve. As to `CNS(=O)(=O)c1cccc(-c2ccc(-n3cc(C(F)F)nc3C)c(-n3nncc3C(C)c3ccc(Cl)cc3)c2)c1` (stereo not drawn) [Example 130, 3′-{5-[1-(4-chlorophenyl)ethyl]-1H-1,2,3-triazol-1-yl}-4′-[4-(difluoromethyl)-2-methyl-1H-imidazol-1-yl]-N-methylbiphenyl-3-sulfonamide], the EC50 came to 896 nM and the Emax stood at 68%.

In the case of `CCS(=O)(=O)c1cccc(-c2ccc(-n3cc(C(F)F)nc3C)c(-n3nncc3C(C)c3ccc(Cl)cc3)c2)c1` (stereo not drawn) [Example 131, 5-[1-(4-chlorophenyl)ethyl]-1-{4-[4-(difluoromethyl)-2-methyl-1H-imidazol-1-yl]-3′-(ethylsulfonyl)biphenyl-3-yl}-1H-1,2,3-triazole], the EC50 worked out at 821 nM and the Emax worked out at 77%.

On to `Cc1nc(C(F)F)cn1-c1ccc(-c2cccc(S(=O)(=O)N(C)C)c2)cc1-n1nncc1C(C)c1ccc(Cl)cc1` (stereo not drawn) [Example 132, 3′-{5-[1-(4-chlorophenyl)ethyl]-1H-1,2,3-triazol-1-yl}-4′-[4-(difluoromethyl)-2-methyl-1H-imidazol-1-yl]-N,N-dimethylbiphenyl-3-sulfonamide], for which the EC50 was 431 nM and the Emax was determined as 61%.

For the compound `Cc1nc(C(F)F)cn1-c1ccc(-c2cccc(S(C)(=O)=O)c2)cc1-n1nncc1C(C)c1ccc(Cl)cc1` (stereo not drawn) [Example 133, 5-[1-(4-chlorophenyl)ethyl]-1-{4-[4-(difluoromethyl)-2-methyl-1H-imidazol-1-yl]-3′-(methylsulfonyl)biphenyl-3-yl}-1H-1,2,3-triazole], the EC50 was found to be 256 nM and the Emax stood at 71%.

`Cc1nc(C(F)F)cn1-c1ccc(-c2cc(F)c(CO)c(S(C)(=O)=O)c2)cc1-n1nncc1C(C)c1ccc(Cl)cc1` (stereo not drawn) [Example 134, [3′-{5-[1-(4-chlorophenyl)ethyl]-1H-1,2,3-triazol-1-yl}-4′-[4-(difluoromethyl)-2-methyl-1H-imidazol-1-yl]-3-fluoro-5-(methylsulfonyl)biphenyl-4-yl]methanol]: the EC50 came out at 166 nM and the Emax worked out at 68%.

Turning to `Cc1nc(C(F)(F)F)cn1-c1ccc(-c2cccc(C(C)(C)C(N)=O)c2)cc1-n1nncc1C(=O)c1ccc(C(F)(F)F)cc1` [Example 135, 2-methyl-2-{4′-[2-methyl-4-(trifluoromethyl)-1H-imidazol-1-yl]-3′-(5-{[4-(trifluoromethyl)phenyl]carbonyl}-1H-1,2,3-triazol-1-yl)biphenyl-3-yl}propanamide], the concentration for a half-maximal effect (EC50) was 886 nM and the Emax came out at 70%.

Turning to `Cc1nc(C(F)(F)F)cn1-c1ccc(-c2cc(F)c(CO)c(S(C)(=O)=O)c2)cc1-n1nncc1C(=O)c1cccc(C(F)(F)F)c1` [Example 136, (1-{3′-fluoro-4′-(hydroxymethyl)-5′-(methylsulfonyl)-4-[2-methyl-4-(trifluoromethyl)-1H-imidazol-1-yl]biphenyl-3-yl}-1H-1,2,3-triazol-5-yl)[3-(trifluoromethyl)phenyl]meth-anone], the 50% effective concentration (EC50) turned out to be 764 nM and the Emax was found to be 69%.

For the compound `Cc1nc(C(F)(F)F)cn1-c1ccc(-c2cccc(S(C)(=O)=O)c2)cc1-n1nncc1C(=O)c1cccc(C(F)(F)F)c1` [Example 137, (1-{3′-(methylsulfonyl)-4-[2-methyl-4-(trifluoromethyl)-1H-imidazol-1-yl]biphenyl-3-yl}-1H-1,2,3-triazol-5-yl)[3-(trifluoromethyl)phenyl]meth-anone], the response was half-maximal at 1090 nM (EC50) and the Emax was 63%.

Consider `Cc1nc(C(F)(F)F)cn1-c1ccc(-c2cccc(S(C)(=O)=O)c2)cc1-n1nncc1C(=O)c1ccc(C(F)(F)F)cc1` [Example 138, (1-{3′-(methylsulfonyl)-4-[2-methyl-4-(trifluoromethyl)-1H-imidazol-1-yl]biphenyl-3-yl}-1H-1,2,3-triazol-5-yl)[4-(trifluoromethyl)phenyl]meth-anone], for which the 50% effective concentration (EC50) was found to be 1290 nM and the Emax turned out to be 99%.

As for `Cc1nc(C(F)(F)F)cn1-c1ccc(-c2cccc(C(C)(C)C(N)=O)c2)cc1-n1nncc1C(=O)c1ccc(Cl)cc1` [Example 139, 2-(3′-{5-[(4-chlorophenyl)carbonyl]-1H-1,2,3-triazol-1-yl}-4′-[2-methyl-4-(trifluoromethyl)-1H-imidazol-1-yl]biphenyl-3-yl)-2-methylpropanamide], the EC50 amounted to 1490 nM and the Emax was 71%.

Regarding `Cc1nc(C(F)(F)F)cn1-c1ccc(-c2cc(F)c(CO)c(S(C)(=O)=O)c2)cc1-n1nncc1C(=O)c1ccc(Cl)cc1` [Example 140, (4-chlorophenyl)(1-{3′-fluoro-4′-(hydroxymethyl)-5′-(methylsulfonyl)-4-[2-methyl-4-(trifluoromethyl)-1H-imidazol-1-yl]biphenyl-3-yl}-1H-1,2,3-triazol-5-yl)methanone], the EC50 is 383 nM and the Emax was 64%.

As for `Cc1nc(C(F)(F)F)cn1-c1ccc(-c2cc(F)c(CO)c(S(C)(=O)=O)c2)cc1-n1nncc1C(=O)c1ccc(C(F)(F)F)cc1` [Example 141, (1-{3′-fluoro-4′-(hydroxymethyl)-5′-(methylsulfonyl)-4-[2-methyl-4-(trifluoromethyl)-1H-imidazol-1-yl]biphenyl-3-yl}-1H-1,2,3-triazol-5-yl)[4-(trifluoromethyl)phenyl]meth-anone], the EC50 stood at 619 nM and the Emax was 106%.

Turning to `CCS(=O)(=O)c1cccc(-c2ccc(-n3cc(C(F)(F)F)nc3C)c(-n3nncc3C(F)(F)c3ccc(Cl)cc3)c2)c1` [Example 142, 5-[(4-chlorophenyl)(difluoro)methyl]-1-{3′-(ethylsulfonyl)-4-[2-methyl-4-(trifluoromethyl)-1H-imidazol-1-yl]biphenyl-3-yl}-1H-1,2,3-triazole], the EC50 is 205 nM and the Emax worked out at 63%.

Regarding `CS(=O)(=O)c1cccc(-c2ccc(-n3cc(C(F)(F)F)nc3Cl)c(-n3nncc3-c3ccc(Cl)cc3Cl)c2)c1` [Example 143, 1-{4-[2-chloro-4-(trifluoromethyl)-1H-imidazol-1-yl]-3′-(methylsulfonyl)biphenyl-3-yl}-5-(2,4-dichlorophenyl)-1H-1,2,3-triazole], the EC50 turned out to be 942 nM and the Emax is 98%.

Turning to `CS(=O)(=O)c1cc(-c2ccc(-n3cc(C(F)(F)F)nc3Cl)c(-n3nncc3-c3ccc(Cl)cc3)c2)cc(F)c1CO` [Example 144, {3′-[5-(4-chlorophenyl)-1H-1,2,3-triazol-1-yl]-4′-[2-chloro-4-(trifluoromethyl)-1H-imidazol-1-yl]-3-fluoro-5-(methylsulfonyl)biphenyl-4-yl}methanol], the midpoint of the response, the EC50, lay at 110 nM and the Emax is 98%.

Regarding `CS(=O)(=O)c1cc(-c2ccc(-n3cc(C(F)(F)F)nc3Cl)c(-n3nncc3-c3ccc(Cl)cc3Cl)c2)cc(F)c1CO` [Example 145, {4′-[2-chloro-4-(trifluoromethyl)-1H-imidazol-1-yl]-3′-[5-(2,4-dichlorophenyl)-1H-1,2,3-triazol-1-yl]-3-fluoro-5-(methylsulfonyl)biphenyl-4-yl}methanol], the EC50 was found to be 233 nM and the Emax came out at 110%.

Regarding `CS(=O)(=O)c1cccc(-c2ccc(-n3cc(C(F)(F)F)nc3Cl)c(-n3nncc3-c3ccc(OC(F)(F)F)cc3)c2)c1` [Example 146, 1-{4-[2-chloro-4-(trifluoromethyl)-1H-imidazol-1-yl]-3′-(methylsulfonyl)biphenyl-3-yl}-5-{4-[(trifluoromethyl)oxy]phenyl}-1H-1,2,3-triazole], the EC50 stood at 251 nM and the Emax came out at 112%.

With `Cc1nc(Cl)cn1-c1ccc(-c2cc(F)c(CO)c(S(C)(=O)=O)c2)cc1-n1nncc1-c1ccc(OC(F)(F)F)cc1` [Example 147, [4′-(4-chloro-2-methyl-1H-imidazol-1-yl)-3-fluoro-5-(methylsulfonyl)-3′-(5-{4-[(trifluoromethyl)oxy]phenyl}-1H-1,2,3-triazol-1-yl)biphenyl-4-yl]methanol], the midpoint of the response, the EC50, lay at 413 nM and the Emax turned out to be 76%.
